This note sets out measurements from US8507520B2, “Polysubstituted 2-aryl-6-phenylimidazo[1,2-A]pyridine derivatives, and preparation and therapeutic use thereof” (Sanofi, priority 2008, dated 2013).

System in the first data set: not given
Assay: not given
Details: not given
The molecule `Cc1cc(-c2cccc(CO)c2)cn2cc(-c3ccc(Cl)cc3)nc12` [Compound 1, {3-[2-(4-Chlorophenyl)-8-methylimidazo[1,2-α]pyridin-6-yl]phenyl}methanol] returned a melting point of 174 to 177 °C.

Another data set deals with T1, mouse Nurr1 receptor (Mus musculus, UniProt Q06219).
T1 construct: a cell line (N2A) endogenously expressing the mouse Nurr1 receptor; host or cells: Neuro-2A (N2A) mouse neuroblastoma cells stably transfected with 8NBRE-luciferase
T1 sequence (Q06219 whole entry): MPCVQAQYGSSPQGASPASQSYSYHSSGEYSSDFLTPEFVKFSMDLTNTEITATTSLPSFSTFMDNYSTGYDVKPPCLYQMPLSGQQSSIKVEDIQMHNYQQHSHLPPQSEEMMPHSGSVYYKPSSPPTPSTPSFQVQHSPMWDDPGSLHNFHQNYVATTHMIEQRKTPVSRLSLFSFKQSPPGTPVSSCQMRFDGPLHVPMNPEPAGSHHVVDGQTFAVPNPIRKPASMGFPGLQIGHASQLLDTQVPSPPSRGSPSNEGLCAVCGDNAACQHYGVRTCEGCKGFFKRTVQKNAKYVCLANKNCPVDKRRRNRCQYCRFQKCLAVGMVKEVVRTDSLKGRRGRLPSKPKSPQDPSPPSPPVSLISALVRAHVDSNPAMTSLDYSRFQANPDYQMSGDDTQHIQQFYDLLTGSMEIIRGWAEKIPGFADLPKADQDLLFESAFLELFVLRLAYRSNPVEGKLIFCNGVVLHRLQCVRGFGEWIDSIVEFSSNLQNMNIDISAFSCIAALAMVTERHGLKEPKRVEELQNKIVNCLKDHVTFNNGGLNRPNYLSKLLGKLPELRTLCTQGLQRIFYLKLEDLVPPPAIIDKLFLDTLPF
The data set can be described thus: In vitro activity on N2A cells (NBRE-luciferase reporter). Type of data set: cell-based. Particulars: N2A-8NBRE cells, products incubated 24 hours. How it is done: Evaluation of the In Vitro Activity on N2A Cells
• The activity of the compounds according to the invention was evaluated on a cell line (N2A) endogenously expressing the mouse Nurr1 receptor and stabily transfected with the NOT binding response element (NBRE) coupled to the luciferase reporter gene. The EC50 values are between 0.01 and 10 μM. The tests were carried out according to the procedure described below. • The Neuro-2A cell line comes from a standard commercial source (ATCC). The Neuro-2A clone was obtained from a spontaneous tumour originating from a mouse A albino strain by R. J. Klebe et al. This Neuro-2A line is subsequently stabily transfected with 8NBRE-luciferase. The N2A-8NBRE cells are cultured to confluence in 75 cm^2 culture flasks containing DMEM supplemented with 10% of foetal calf serum, 4.5 g/l of glucose and 0.4 mg/ml of geneticin. After one week of culture, the cells are recovered with 0.25% trypsin for 30 seconds and then resuspended in DMEM without phenol red, containing 4.5 g/l of glucose, 10% of Hyclone defatted serum, and deposited in white, transparent-bottom, 96-well plates. The cells are deposited at a rate of 60 000 per well in 75 μl for 24 hours before the addition of the products. The products were applied in 25 μl and incubated for a further 24 hours. On the day of measurement, an equivalent volume (100 μl) of Steadylite is added to each well, followed by a waiting period of 30 minutes in order to obtain complete lysis of the cells and maximum production of the signal. The plates are then measured in a microplate luminescence counter after having been sealed with an adhesive film. The products are prepared in the form of a stock solution at 10^−2 M, and then diluted in 100% of DMSO. Each product concentration is diluted beforehand in culture medium before incubation with the cells thus containing a final concentration of 0.625% of DMSO. […] It therefore appears that the compounds according to the invention have a NOT-modulating effect.
In the case of `Cc1cc(-c2cccc(CO)c2)cn2cc(-c3ccc(Cl)cc3)nc12` [Compound 1, {3-[2-(4-Chlorophenyl)-8-methylimidazo[1,2-α]pyridin-6-yl]phenyl}methanol], the midpoint of the response, the EC50, lay at 5 nM.
Take `Cc1c(-c2ccccc2)nc2ccc(-c3cccc(CO)c3)cn12` [Compound 3, [3-(3-Methyl-2-phenylimidazo[1,2-α]pyridin-6-yl)phenyl]methanol]: a half-maximal response (EC50) required 0.5 nM. Compared with the last molecule, the EC50 is about 10-fold lower.
Consider `Cc1cc(-c2ccc(CO)cc2)cn2cc(-c3ccc4ccccc4c3)nc12` [Compound 10, [4-(8-methyl-2-naphthyl-2-ylimidazo[1,2-α]pyridin-6-yl)phenyl]methanol], for which the EC50 was found to be 68 nM.
Consider `COc1ccc(-c2nc3ccc(-c4cccc(C(C)(C)O)c4)cn3c2C)cc1` [Compound 15, 2-{3-[2-(4-methoxyphenyl)-3-methylimidazo[1,2-α]pyridin-6-yl]phenyl}propan-2-ol], for which it took 161 nM to reach a half-maximal effect (EC50).
On the same count and under the same terms, the result for `Cc1c(-c2cccc(Cl)c2)nc2ccc(-c3ccc(F)c(CO)c3F)cn12` [Compound 19, {3-[2-(3-chlorophenyl)-3-methylimidazo[1,2-α]pyridin-6-yl]-2,6-difluorophenyl}methanol] reads 1.7 nM.
